How the values were obtained:
Experiment in all cases: relative viability (nuclei count vs DMSO), 5 days (fraction); higher = more cells survive
[1] = compound: C1CC(C1)(C(=O)O)C(=O)O.[NH2-].[NH2-].[Pt+2] [Carboplatin] + Nc1nc2[nH]cc(CCc3ccc(C(=O)N[C@@H](CCC(=O)O)C(=O)O)cc3)c2c(=O)[nH]1 [Pemetrexed] (partner 0.2 µM)
Method in brief: (§1)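 Relative viability divides the nuclei count in treated wells by that in vehicle wells. Lung cancer cell lines were seeded in 1536-well plates, dosed by pin tool the next day, and fixed and stained after 5 days in one step with final 0.05% Triton X-100, 1% formaldehyde and 1 ug/ml Hoechst. Dosing was a single drug or a fixed anchor-drug dose plus five library-drug doses (not always all listed) in √10 steps, and values are medians of duplicate plates imaged at 4×.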

[2] = compound: NS(=O)(=O)OC[C@@H]1C[C@@H](n2ccc3c(N[C@H]4CCc5ccccc54)ncnc32)C[C@@H]1O [MLN4924] + Cc1nc(NC(=O)N2CCC[C@H]2C(N)=O)sc1-c1ccnc(C(C)(C)C(F)(F)F)c1 [Alpelisib] (partner 2 µM)
Method in brief: as §1

[3] = compound: CC[C@H](C)N1C=C(C2=C(C=C(C=C21)C3=CN=C(C=C3)N4CCNCC4)C(=O)NCC5=C(C=C(NC5=O)C)C)C [GSK126] + COc1cc2c(Oc3ccc(NC(=O)C4(C(=O)Nc5ccc(F)cc5)CC4)cc3F)ccnc2cc1OCCCN1CCOCC1 [Foretinib] (partner 0.25 µM)
Method in brief: as §1

[4] = compound: CC[C@H](C)N1C=C(C2=C(C=C(C=C21)C3=CN=C(C=C3)N4CCNCC4)C(=O)NCC5=C(C=C(NC5=O)C)C)C [GSK126] + CS(=O)(=O)N1CCN(Cc2cc3nc(-c4cccc5[nH]ncc45)nc(N4CCOCC4)c3s2)CC1 [Pictilisib] (partner 1 µM)
Method in brief: as §1

| Cell Line | relative viability ([1]; first compound 0.08 µM) | relative viability ([1]; first compound 0.253 µM) | relative viability ([1]; first compound 0.8 µM) | relative viability ([1]; first compound 2.53 µM) | relative viability ([1]; first compound 8 µM) | relative viability ([2]; first compound 0.04 µM) | relative viability ([2]; first compound 0.1265 µM) | relative viability ([2]; first compound 0.4 µM) | relative viability ([2]; first compound 1.265 µM) | relative viability ([2]; first compound 4 µM) | relative viability ([3]; first compound 0.08 µM) | relative viability ([3]; first compound 0.253 µM) | relative viability ([3]; first compound 0.8 µM) | relative viability ([3]; first compound 2.53 µM) | relative viability ([3]; first compound 8 µM) | relative viability ([4]; first compound 0.08 µM) | relative viability ([4]; first compound 0.253 µM) | relative viability ([4]; first compound 0.8 µM) | relative viability ([4]; first compound 2.53 µM) | relative viability ([4]; first compound 8 µM) |
| --- | --- | --- | --- | --- | --- | --- | --- | --- | --- | --- | --- | --- | --- | --- | --- | --- | --- | --- | --- | --- |
| NCI-H2009 | 1.04 | 0.983 | 1 | 0.958 | 0.654 | 0.987 | 0.791 | 0.299 | 0.151 | 0.114 | 1.25 | 1.25 | 1.15 | 1.18 | 1.35 | 1.14 | 0.69 | 0.827 | 0.908 | 0.908 |
| NCI-H2023 | 0.248 | 0.209 | 0.196 | 0.15 | 0.152 | 0.731 | 0.528 | 0.224 | 0.0584 | 0.0729 | 1.02 | 0.885 | 0.961 | 1.05 | 1.15 | 0.26 | 0.253 | 0.247 | 0.306 | 0.256 |
| NCI-H2085 | 1.03 | 0.846 | 0.974 | 0.948 | 0.899 | 0.921 | 1.01 | 0.94 | 0.743 | 0.416 | 1.09 | 1.04 | 0.855 | 1.12 | 1.24 | 0.484 | 0.358 | 0.369 | 0.485 | 0.49 |
| NCI-H2087 | 0.619 | 0.647 | 0.618 | 0.632 | 0.604 | 1.13 | 0.815 | 0.381 | 0.178 | 0.136 | 1.2 | 0.999 | 1.05 | 1.28 | 1.13 | 1.08 | 0.745 | 0.815 | 0.894 | 0.844 |
| NCI-H2126 | 0.759 | 0.64 | 0.724 | 0.698 | 0.647 | 0.781 | 0.718 | 0.647 | 0.338 | 0.273 | 1.19 | 0.847 | 1.21 | 1.28 | 1.25 | 0.497 | 0.531 | 0.523 | 0.496 | 0.502 |
| NCI-H2170 | 0.246 | 0.252 | 0.265 | 0.286 | 0.236 | 0.906 | 0.555 | 0.457 | 0.169 | 0.171 | 0.587 | 1.03 | 0.979 | 0.969 | 0.973 | 0.333 | 0.281 | 0.35 | 0.322 | 0.346 |
| NCI-H2228 | 0.397 | 0.338 | 0.311 | 0.376 | 0.313 |  | 0.833 | 0.415 | 0.176 | 0.18 | 0.871 | 0.828 | 0.789 | 0.832 | 0.628 | 0.357 | 0.519 | 0.494 | 0.497 | 0.42 |
| NCI-H2347 | 0.432 | 0.452 | 0.403 | 0.407 | 0.525 | 1.02 | 0.865 | 0.638 | 0.33 | 0.382 | 0.842 | 0.861 | 1.07 | 1.25 | 1.35 | 0.602 | 0.661 | 0.567 | 0.511 | 0.616 |

Source: the supplement of paper PMC10307832
